Assays:
[1] = test system: tumour endothelial cells (activated) and normal endothelial cells (quiescent); assay: Selectivity between activated (tumour) and quiescent (normal) endothelial cells; format: cell-based
Excerpt: An important aspect of the compounds of formulae I, Ia, Ib, II and III is the combination of the specific C-6 and C-7 substituents together with the C-2 Q-group (especially C-2 methyl) which appears to confer greater potency and selectivity when compared to other structurally related TPI compounds. In these compounds selectivity is not simply reliant on the predisposition of tumour vasculature towards collapse when challenged with the VDA but on a capacity of the VDA to distinguish between tumour endothelial cells and normal endothelial cells. Normal endothelial cells, found in healthy tissues, are in a “quiescent” state and tumour endothelial cells are in an “activated” state.

RENCA renal tumours = assay: Vascular shutdown and hypoxia response markers in RENCA renal tumours; format: in vivo
tumor mass = assay: Histological changes caused by BNC105 anti-tumor action (tumor necrosis); format: in vivo; details: histology; peripheral regions remain viable
Excerpt: Based on investigations on the histological changes caused by BNC105 anti-tumor action, it was established that >95% of the tumor mass becomes necrotic, while peripheral regions remain viable. […] Among these is the angiogenesis growth factor VEGF. The present inventors sought to investigate the potential therapeutic benefit of combining BNC105 with an inhibitor of the VEGF/VEGFR2 signalling pathway.

[2] = test system: RENCA (VHL wildtype) orthotopic tumour; assay: Tumour growth inhibition by weight of RENCA orthotopic tumour bearing kidneys; format: in vivo, Balb/c mice; details: kidneys weighed on Day 10 of treatment; Pazopanib 30 mg/kg p.o. daily, BNC105 16 mg/kg i.v. Days 2 and 9; FIG. 3
Protocol: FIG. 3 Right kidney weight (mg)±SEM of mice bearing RENCA kidney tumours treated with BNC105P, Pazopanib or BNC105P+Pazopanib.
RENCA (VHL wildtype) orthotopic tumour bearing kidneys from Balb/c mice were weighed on Day 10 day of treatment (Pazopanib 30 mg/kg, p.o. Daily, BNC105 16 mg/kg i.v. Days 2 and 9).

RENCA orthotopic tumour = assay: TUNEL assay of necrosis in RENCA orthotopic tumour sections; format: in vivo, Balb/c mice; details: 4 hours after dosing BNC105 on Day 9; Bortezomib 0.5 mg/kg iv Days 1, 5, 8; BNC105 32 mg/kg iv Days 2 and 9
Protocol: RENCA orthotopic tumour bearing kidneys from Balb/c mice were photographed 4 hours after dosing BNC105 on Day 9 of treatment (Bortezomib 0.5 mg/kg iv Days 1, 5, 8, BNC105 32 mg/kg iv Days 2 and 9). Formalin fixed and paraffin embedded sections were stained using a TUNEL assay (Roche) to visualize cell necrosis.

[3] = test system: MDA-MB-231 breast carcinoma; assay: Tumour hypoxia / disruption of tumour vasculature in MDA-MB-231 tumours; format: in vivo
Calu-6 lung carcinoma = assay: Tumour hypoxia / disruption of tumour vasculature in Calu-6 tumours; format: in vivo
Colo205 colon carcinoma = assay: Tumour hypoxia / disruption of tumour vasculature in Colo205 tumours; format: in vivo
[4] = test system: DU-145 prostate carcinoma; assay: Tumour hypoxia / disruption of tumour vasculature in DU-145 tumours; format: in vivo
[5] = test system: RENCA (VHL wildtype) orthotopic tumour; assay: Immunohistochemistry of unfolded protein response markers in RENCA orthotopic tumour sections; format: in vivo, Balb/c mice; details: 24 hours after a single dose i.v. 32 mg/kg
Excerpt: (Fast Red detection on hematoxylin)

## COc1cc(C(=O)c2c(C)oc3c(O)c(OC)ccc23)cc(OC)c1OC [BNC105, 2-Methyl-7-hydroxy-3-(3,4,5-trimethoxybenzoyl)-6-methoxybenzofuran]
[1]
  potency against quiescent versus activated endothelial cells (selectivity): show selectivity towards tumor endothelial cells (activated) over normal endothelial cells (quiescent)
RENCA renal tumours
  vascular shutdown: induced vascular shutdown
RENCA renal tumours; induced hypoxia
  CXCL12 and MMP-9 levels: increase in CXCL12 and MMP-9
RENCA renal tumours; on vascular shutdown
  GLUT1, HIF-1a, PERK, eIF2a and VEGF levels: increase GLUT1, HIF-1a, PERK, eIF2a and VEGF
Tumor mass
  tumor mass that becomes necrotic: > 95%
[2]
  tumour growth inhibition: 21%
RENCA orthotopic tumour
  tumor necrosis (TUNEL staining): Very little tumor necrosis

## COc1ccc(/C=C\c2cc(OC)c(OC)c(OC)c2)cc1O [Combretastatin A4 (CA4), Combretastatin A4, reference compound]
[1]
  potency against quiescent versus activated endothelial cells (selectivity): equally potent against quiescent and activated endothelial cells

## Cc1ccc(Nc2nccc(N(C)c3ccc4c(C)n(C)nc4c3)n2)cc1S(N)(=O)=O [Pazopanib, reference compound]
[2]
  tumour growth inhibition: 19%

## CC(C)C[C@H](NC(=O)[C@H](Cc1ccccc1)NC(=O)c1cnccn1)B(O)O [Bortezomib, reference compound]
RENCA orthotopic tumour
  tumor necrosis (TUNEL staining): Very little tumor necrosis

## COc1cc(C(=O)c2c(C)oc3c(OP(=O)([O-])[O-])c(OC)ccc23)cc(OC)c1OC.[Na+].[Na+] [BNC105P, Disodium 6-methoxy-2-methyl-3-(3,4,5-trimethoxybenzoyl)benzofuran-7-yl phosphate]
[3]; MDA-MB-231 breast carcinoma
  tumour hypoxia by disruption of tumour vasculature: increase tumour hypoxia
[3]; MDA-MB-231 tumours
  apoptotic cells: increase in apoptotic cells
  blood vessel integrity: damage of blood vessel integrity
  release of angiogenic growth factor VEGF: release of the angiogenic growth factor VEGF
  tumour endothelial cells: destruction of tumour endothelial cells
Calu-6 lung carcinoma
  tumour hypoxia by disruption of tumour vasculature: increase tumour hypoxia
Colo205 colon carcinoma
  tumour hypoxia by disruption of tumour vasculature: increase tumour hypoxia
[4]
  tumour hypoxia by disruption of tumour vasculature: increase tumour hypoxia
[5]
  unfolded protein response markers PERK and phosphorylation of eIF2α: upregulation of unfolded protein response markers
